This is an account of results in ChEMBL document CHEMBL4330129 (Bioorg Med Chem, 2019).

Data set [1] in a line: Binding affinity to FLAG/His-tagged Keap1 (unknown origin)/biotinylated full-length FLAG/His/Tev/Avi-tagged Cul3 (unknown origin) expressed in baculovirus infected Sf9 insect cells measured after 1 hr by TR-FRET assay. Also on record: species or system Homo sapiens.
Another data set deals with Keap1/Nrf2 (Homo sapiens, UniProt Q14145+Q16236). Kind of data set: Binding affinity to FLAG/His-tagged Keap1 (unknown origin)/biotinylated full-length FLAG/His/Tev/Avi-tagged NRF2 (unknown origin) expressed in baculovirus infected Sf9 insect cells measured after 1 hr by TR-FRET assay. (In TR-FRET formats the signal depends on donor and acceptor labels being close together.)

The next data set is filed under the species Homo sapiens. As to the kind of experiment: Activation of Keap1/Cul3/Nrf2 in NHBE cells assessed as induction of HO-1 gene expression at 10 uM after 24 hrs by RT-PCR analysis relative to SFN. It counts as cell-based.
A short description of data set [2]: Lipophilicity, log D of the compound at pH 7.4 by chromatographic method. It counts as physicochemical. The conditions noted are these: buffer.
A short description of data set [3]: Kinetic solubility of the compound at pH 7.4 by CLND method. It counts as physicochemical. The conditions noted are these: buffer, read-out: Kinetic_solubility.

≈ marks a conversion by molar mass, not a printed value. Bounds are passed on as bounds.

Chain of Keap1/Nrf2 (Q16236 whole entry): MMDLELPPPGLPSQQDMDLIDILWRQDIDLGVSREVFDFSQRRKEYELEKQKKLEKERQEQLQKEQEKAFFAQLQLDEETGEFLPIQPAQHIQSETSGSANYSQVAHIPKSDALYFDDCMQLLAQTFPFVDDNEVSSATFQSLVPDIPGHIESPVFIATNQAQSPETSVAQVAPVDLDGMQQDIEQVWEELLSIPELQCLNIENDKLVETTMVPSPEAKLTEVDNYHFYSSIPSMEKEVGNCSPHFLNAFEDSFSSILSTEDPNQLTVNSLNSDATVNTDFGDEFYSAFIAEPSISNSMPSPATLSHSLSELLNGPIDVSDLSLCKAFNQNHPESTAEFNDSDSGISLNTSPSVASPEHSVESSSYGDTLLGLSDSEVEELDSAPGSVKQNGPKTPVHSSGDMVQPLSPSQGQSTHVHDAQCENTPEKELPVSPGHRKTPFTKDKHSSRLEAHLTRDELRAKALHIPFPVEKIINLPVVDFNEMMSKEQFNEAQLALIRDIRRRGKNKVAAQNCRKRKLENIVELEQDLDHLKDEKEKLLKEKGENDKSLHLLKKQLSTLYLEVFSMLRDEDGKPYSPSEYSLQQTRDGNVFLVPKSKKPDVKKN
Chain of Keap1/Nrf2 (Q14145 whole entry): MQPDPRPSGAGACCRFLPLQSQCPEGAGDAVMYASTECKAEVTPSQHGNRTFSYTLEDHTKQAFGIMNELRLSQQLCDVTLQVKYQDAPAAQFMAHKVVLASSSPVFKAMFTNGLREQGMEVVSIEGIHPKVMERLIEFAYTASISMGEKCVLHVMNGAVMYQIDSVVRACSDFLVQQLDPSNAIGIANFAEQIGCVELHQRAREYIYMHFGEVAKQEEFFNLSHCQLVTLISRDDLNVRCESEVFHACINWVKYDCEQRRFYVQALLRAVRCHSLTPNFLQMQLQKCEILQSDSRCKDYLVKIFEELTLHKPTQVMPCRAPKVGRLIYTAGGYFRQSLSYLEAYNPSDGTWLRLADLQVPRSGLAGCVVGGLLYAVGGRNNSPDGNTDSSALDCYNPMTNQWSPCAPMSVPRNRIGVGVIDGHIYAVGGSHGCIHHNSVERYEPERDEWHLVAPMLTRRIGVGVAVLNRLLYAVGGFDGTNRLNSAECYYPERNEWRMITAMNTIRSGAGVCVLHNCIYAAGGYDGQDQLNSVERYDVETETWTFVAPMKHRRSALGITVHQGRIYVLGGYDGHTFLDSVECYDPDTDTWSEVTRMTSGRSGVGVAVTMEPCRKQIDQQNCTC

By pIC50 is commonly meant the IC50 on a negative log10 scale, so that one unit is a factor of ten. As a reminder, the IC50 is the concentration that gives 50% inhibition. Low values mean inhibition by little substance, high ones a need for much substance. One may read the chromatographic logD as lipophilicity estimated from chromatographic retention. A low value points to lower lipophilicity. On to `O=C(NCCCCN=C=S)Nc1ccc2scnc2c1`, for which, in data set [1], the pIC50 is 5.2. Moreover, the IC50 at Keap1/Nrf2 was 5.01 µM. For the same molecule, the fold change (FC) in the data set filed under Homo sapiens was determined as 3.75. The molecule further came in with a chromatographic logD in data set [2] of 3.77.

`CC(=O)CCCCN=C=S` had a pIC50 in data set [1] of 4.1. The IC50 at Keap1/Nrf2 was above 100 µM. Moreover, the fold change (FC) in the data set listed under Homo sapiens is 0.9. Further, in data set [3], the solubility kinetic came to 206 µM (≈ 32.4 µg/mL). For the same molecule, in data set [2], the chromatographic logD was determined as 4.21.

Take `CN1CCC(SC(=S)NCCCCNC(=O)Nc2ccc3c(c2)OCCO3)CC1`: the pIC50 in data set [1] is recorded as 5. Moreover, the IC50 on Keap1/Nrf2 is 12.6 µM. In the data set filed under Homo sapiens, the fold change (FC) worked out at 23.6. Moreover, the chromatographic logD in data set [2] was determined as 2.24.

As for `CC(=O)N(C)CC[S+]([O-])CCCCN=C=S` (stereo not drawn), the pIC50 in data set [1] is listed as below 4. Further, the IC50 on Keap1/Nrf2 is above 100 µM. The fold change (FC) in the data set listed under Homo sapiens turned out to be 0.29. Besides, the solubility kinetic in data set [3] is at least 110 µM. This molecule registered a chromatographic logD in data set [2] of 1.51.

Molecule `CN(C)CCCS(=O)(=O)CCCCN=C=S` yielded a negative logarithm of the IC50 (pIC50) in data set [1] below 4. On Keap1/Nrf2, this molecule showed an IC50 above 100 µM. For the same molecule, in the data set listed under Homo sapiens, the fold change (FC) came to 0.34. Further, the solubility kinetic in data set [3] is 210 µM (≈ 55.5 µg/mL). The same molecule returned a chromatographic logD in data set [2] of 1.55.

In turn, `CN1CCC(SC(=S)NCCCCNC(=O)Nc2ccc3c(c2)OCO3)CC1` showed a negative logarithm of the IC50 (pIC50) in data set [1] of 5.1. Also, on Keap1/Nrf2, the half-inhibitory concentration (IC50) was 20 µM. The fold change (FC) in the data set filed under Homo sapiens amounted to 25.1. For the same molecule, the solubility kinetic in data set [3] is at least 358 µM. In addition, the chromatographic logD in data set [2] came to 2.46.

`COC(=O)C(CS(=O)(=O)CCCCN=C=S)NC(C)=O` (stereo not drawn) yielded a pIC50 in data set [1] of 4.3. The molecule further had an IC50 at Keap1/Nrf2 above 100 µM. For the same molecule, the fold change (FC) in the data set filed under Homo sapiens is 0.16. Besides, in data set [3], the solubility kinetic was at least 444 µM. Further, the chromatographic logD in data set [2] came to 2.44.

Consider `CC(C)(C)OC(=O)N1CCC(SC(=S)NCCCCNC(=O)Nc2cccnc2)CC1`, for which the negative logarithm of the IC50 (pIC50) in data set [1] came to 4.3. The molecule also had an IC50 at Keap1/Nrf2 of 50.1 µM. Besides, in the data set listed under Homo sapiens, the fold change (FC) was 2.88. Also, in data set [3], the solubility kinetic came to 114 µM (≈ 53.3 µg/mL). Moreover, in data set [2], the chromatographic logD is 4.97.

`CN1CCC(SC(=S)NCCCC[S+](C)[O-])CC1` (stereo not drawn) displayed a pIC50 in data set [1] below 4. Besides, at Keap1/Nrf2, the IC50 is above 100 µM. The fold change (FC) in the data set filed under Homo sapiens amounted to 0.93. The solubility kinetic in data set [3] is at least 536 µM. The chromatographic logD in data set [2] is 0.81.

Turning to `O=C(NCCCCN=C=S)OCc1ccncc1`, the pIC50 in data set [1] turned out to be 4.6. The 50% inhibitory concentration (IC50) on Keap1/Nrf2 was 39.8 µM. Besides, in the data set filed under Homo sapiens, the fold change (FC) stood at 13.3. For the same molecule, the solubility kinetic in data set [3] turned out to be 354 µM (≈ 93.9 µg/mL). In data set [2], this molecule registered a chromatographic logD of 3.5.

As for `CN1CCC(SC(=S)NCCCCNC(=O)Oc2ccccc2)CC1`, the pIC50 in data set [1] was 4.8. Moreover, the concentration for half-maximal inhibition (IC50) at Keap1/Nrf2 was 25.1 µM. Further, in the data set listed under Homo sapiens, the fold change (FC) turned out to be 5.52. The solubility kinetic in data set [3] was at least 410 µM. The same molecule yielded a chromatographic logD in data set [2] of 0.9.

Take `CC(C)(C)OC(=O)N1CCC(SC(=O)NCCCCNC(=S)SC2CCN(C(=O)OC(C)(C)C)CC2)CC1`: in data set [1], the negative-log IC50 (pIC50) was below 4. The molecule further had a half-inhibitory concentration (IC50) on Keap1/Nrf2 above 100 µM. Further, the fold change (FC) in the data set filed under Homo sapiens is 4.08. Also, in data set [3], the solubility kinetic is 9 µM (≈ 5.32 µg/mL). Moreover, the chromatographic logD in data set [2] turned out to be 7.89.

In data set [1], `CN(C)C(=O)CCCCN=C=S` returned a pIC50 of 4.2. Moreover, the IC50 at Keap1/Nrf2 was above 100 µM. For the same molecule, the fold change (FC) in the data set filed under Homo sapiens worked out at 0.71.

As to `CC(C)(C)OC(=O)N1CCC(SC(=S)NCCCCNC(=O)NCc2ccccc2)CC1`, the pIC50 in data set [1] is 4.7. The molecule also showed an IC50 at Keap1/Nrf2 of 7.94 µM. The fold change (FC) in the data set listed under Homo sapiens came to 18.6. The solubility kinetic in data set [3] is 34 µM (≈ 16.3 µg/mL). Further, the chromatographic logD in data set [2] came out at 6.05.

Regarding `CN1CCC(SC(=S)NCCCCNC(=O)Nc2cccnc2)CC1`, the pIC50 in data set [1] came to 4.7. Further, at Keap1/Nrf2, the half-inhibitory concentration (IC50) is 39.8 µM. Besides, the fold change (FC) in the data set filed under Homo sapiens worked out at 16. For the same molecule, the solubility kinetic in data set [3] is at least 345 µM. In data set [2], this molecule registered a chromatographic logD of 1.11.

As for `O=S(=O)(CC1(N2CCC(CN=C=S)CC2)COC1)c1ccccc1`, in data set [1], the pIC50 is 4.7. The molecule also gave an IC50 on Keap1/Nrf2 of 39.8 µM. Also, the fold change (FC) in the data set filed under Homo sapiens amounted to 2.98. Moreover, the solubility kinetic in data set [3] was 341 µM (≈ 125 µg/mL). The chromatographic logD in data set [2] was found to be 5.41.

In data set [1], `CN1CCC(SC(=S)NCCCCNC(=O)Nc2ccc3nccnc3c2)CC1` gave a pIC50 of 5.1. On Keap1/Nrf2, this molecule gave an IC50 of 10 µM. Besides, the fold change (FC) in the data set listed under Homo sapiens amounted to 102. Moreover, the solubility kinetic in data set [3] is at least 400 µM. The molecule also gave a chromatographic logD in data set [2] of 1.52.

On to `CSc1c(N(C)CCCC[S+](C)[O-])c(=O)c1=O` (stereo not drawn), for which the fold change (FC) in the data set listed under Homo sapiens was found to be 0.14.

Turning to `CN(C)C(=O)/C=C/CCCCCS(C)(=O)=O`, the fold change (FC) in the data set filed under Homo sapiens is 0.13.

In turn, `CN1CCC(SC(=S)NCCCCNC(=O)Nc2ccc3ncsc3c2)CC1` had a pIC50 in data set [1] of 5.4. At Keap1/Nrf2, this molecule gave a half-maximal inhibitory concentration (IC50) of 7.94 µM. Also, the fold change (FC) in the data set listed under Homo sapiens is 25.5. The molecule further gave a chromatographic logD in data set [2] of 1.91.

With `CC[S+]([O-])C(=O)N(CCCC[S+](C)[O-])Cc1ccccc1` (stereo not drawn), the fold change (FC) in the data set filed under Homo sapiens was found to be 0.27.

As to `O=C(NCCCCN=C=S)C1CCCCC1`, the negative-log IC50 (pIC50) in data set [1] is reported as 4.4. The IC50 at Keap1/Nrf2 was 50.1 µM. Moreover, the fold change (FC) in the data set filed under Homo sapiens worked out at 1.13. In data set [3], the solubility kinetic is 369 µM (≈ 88.7 µg/mL).

In turn, `CNC(=O)CCCCN=C=S` registered a pIC50 in data set [1] of 4.1. For the same molecule, the IC50 at Keap1/Nrf2 is above 100 µM. Further, the fold change (FC) in the data set filed under Homo sapiens was determined as 0.7.

In turn, `CC(C)(C)OC(=O)N1CCC(SC(=S)NCCCCNC(=O)Nc2ccc3c(c2)OCCO3)CC1` gave a negative logarithm of the IC50 (pIC50) in data set [1] of 4.4. This molecule had an IC50 at Keap1/Nrf2 of 31.6 µM. Further, the fold change (FC) in the data set filed under Homo sapiens worked out at 74.8. Besides, the chromatographic logD in data set [2] is 5.79.

Consider `C[S+]([O-])CCCCCCN=C=S` (stereo not drawn), for which, on Keap1/Nrf2, the half-inhibitory concentration (IC50) was above 100 µM. Further, the solubility kinetic in data set [3] was at least 324 µM. Also, the chromatographic logD in data set [2] amounted to 0.9.

In turn, `COCCOC(=O)NCCCCN=C=S` showed a negative logarithm of the IC50 (pIC50) in data set [1] below 4. At Keap1/Nrf2, this molecule gave an IC50 above 100 µM. In addition, the fold change (FC) in the data set filed under Homo sapiens was 0.17. In addition, in data set [3], the solubility kinetic amounted to 1 µM (≈ 0.232 µg/mL).

`CC(=O)NCCSC(=S)NCCCC[S+](C)[O-]` (stereo not drawn): at Keap1/Nrf2, the IC50 is above 100 µM. Moreover, the solubility kinetic in data set [3] was at least 531 µM. The same molecule had a chromatographic logD in data set [2] of 0.58.

For `CN1CCC(SC(=S)NCCCCNC(=O)CC2CCCCC2)CC1`, the pIC50 in data set [1] was determined as 5. Moreover, the IC50 at Keap1/Nrf2 was 15.8 µM. In addition, the fold change (FC) in the data set filed under Homo sapiens was 11.5. In data set [2], this molecule had a chromatographic logD of 3.28.

Turning to `O=C(NCCCCN=C=S)OCc1ccccc1`, in data set [1], the pIC50 was determined as 5.1. Further, the IC50 on Keap1/Nrf2 is 12.6 µM. In addition, in the data set listed under Homo sapiens, the fold change (FC) worked out at 0.63.

Turning to `CC(=O)NCCCCN=C=S`, the negative logarithm of the IC50 (pIC50) in data set [1] is 4.2. The same molecule had a 50% inhibitory concentration (IC50) at Keap1/Nrf2 above 100 µM. In the data set listed under Homo sapiens, the fold change (FC) turned out to be 0.54.

As for `CN(C)C(=O)/C(C#N)=C/CCCCC[S+](C)[O-]` (stereo not drawn), in the data set filed under Homo sapiens, the fold change (FC) came to 0.33.

`O=C(CC1CCCCC1)NCCCCN=C=S` displayed a pIC50 in data set [1] of 4.8. Also, the IC50 at Keap1/Nrf2 was 25.1 µM. Also, in the data set listed under Homo sapiens, the fold change (FC) turned out to be 11.5. For the same molecule, the solubility kinetic in data set [3] was at least 413 µM.

In the case of `CN(C)C(=O)/C(C#N)=C/CCCCCS(C)(=O)=O`, the fold change (FC) in the data set filed under Homo sapiens was 0.18.

In the case of `CN(C)C(=O)/C=C/CCCCC[S+](C)[O-]` (stereo not drawn), the fold change (FC) in the data set filed under Homo sapiens amounted to 0.11.

With `CC(C)(C)OC(=O)N1CCC(SC(=S)NCCCCNC(=O)Nc2ccc3ncsc3c2)CC1`, in data set [1], the pIC50 is 4.7. Besides, the IC50 on Keap1/Nrf2 was 31.6 µM. Further, in the data set filed under Homo sapiens, the fold change (FC) came out at 18.3. This molecule also returned a chromatographic logD in data set [2] of 5.45.

For `O=C(NCCCN=C=S)OCc1ccccc1`, the pIC50 in data set [1] came to 5. The molecule also gave a 50% inhibitory concentration (IC50) on Keap1/Nrf2 of 5.01 µM. Moreover, in the data set filed under Homo sapiens, the fold change (FC) came to 32.2.
